Measurements reported in patent US7449447B2, “Peptidomimetic NS3-serine protease inhibitors of hepatitis C virus” (priority 2003, dated 2008).

Molecular target: T1, HCV NS3/NS4a serine protease (Hepatitis C virus genotype 1b, UniProt P26663)
T1 construct: amino terminus of the NS3 protease domain (amino acids 3-181) with a tetrapeptide linker; made in house; host or cells: E. coli
Test: Spectrophotometric assay for HCV protease inhibitory activity (chromogenic ester substrates)
Type: biochemical, hepatitis C virus (strain 1b)
Conditions: single chain NS4A21-32-GSGS-NS3 3-181 protease, 30° C., pH 6.5
In short: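 Single-chain NS4A(21-32)-GSGS-NS3(3-181) protease (genotype 1b) from E. coli was used at 1.3 nM in 25 mM MOPS pH 6.5 with 300 mM NaCl, 30 °C and 4% DMSO. Chromogenic ester substrate cleavage was followed as PAP release at 370 nm over 60 min. Ki was derived from vo/vi versus [I] plots assuming competitive inhibition.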

T1 sequence (P26663 1013-1207, looked up, natural form): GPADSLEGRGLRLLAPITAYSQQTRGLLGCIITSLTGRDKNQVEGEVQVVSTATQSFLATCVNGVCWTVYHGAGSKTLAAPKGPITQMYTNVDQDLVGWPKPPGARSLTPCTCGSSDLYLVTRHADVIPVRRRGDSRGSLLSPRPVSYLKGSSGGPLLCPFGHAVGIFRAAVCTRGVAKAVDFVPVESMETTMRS

SMILES	Ki (Ki, Table 3, rating) [nM]	further results
CN(C[C@@H](NC(=O)N[C@H](C(=O)N1C[C@H]2[C@@H]([C@H]1C(=O)N[C@@H](CC(F)F)C(=O)NCC(O)c1ccccc1)C2(C)C)C(C)(C)C)C(C)(C)C)S(C)(=O)=O (stereo partly shown) [Example 246]	100 to 500	–
CN(C[C@@H](NC(=O)N[C@H](C(=O)N1C[C@H]2[C@@H]([C@H]1C(=O)N[C@@H](CC(F)F)C(=O)NCCc1cccs1)C2(C)C)C(C)(C)C)C(C)(C)C)S(C)(=O)=O [Example 216]	< 100	–
CN(C[C@@H](NC(=O)N[C@H](C(=O)N1C[C@H]2[C@@H]([C@H]1C(=O)N[C@@H](CC(F)F)C(=O)NCCC(c1ccccc1)c1ccccc1)C2(C)C)C(C)(C)C)C(C)(C)C)S(C)(=O)=O [Example 229]	> 500	–
CC(NC(=O)[C@H](CC(F)F)NC(=O)[C@@H]1[C@@H]2[C@H](CN1C(=O)[C@@H](NC(=O)N[C@H](CN(C)S(C)(=O)=O)C(C)(C)C)C(C)(C)C)C2(C)C)c1ccc(Cl)cc1 (stereo partly shown) [Example 226]	> 500	–
CC(C)[C@H](NC(=O)N[C@H](C(=O)N1C[C@H]2[C@@H]([C@H]1C(=O)NC(CC(F)F)C(=O)NCCc1ccc(C(=O)O)cc1)C2(C)C)C(C)(C)C)C(=O)OC(C)(C)C (stereo partly shown) [Example 129]	–	Ki (Ki Rating, Table 2): 100 to 500 nM
CC(C)[C@H](NC(=O)N[C@H](C(=O)N1C[C@H]2[C@@H]([C@H]1C(=O)NC(CC(F)F)C(=O)O)C2(C)C)C(C)(C)C)C(=O)OC(C)(C)C (stereo partly shown) [Example 159]	–	Ki (Ki Rating, Table 2): > 500 nM
CN(C[C@@H](NC(=O)N[C@H](C(=O)N1C[C@H]2[C@@H]([C@H]1C(=O)N[C@@H](CC(F)F)C(=O)NCCc1ccccc1F)C2(C)C)C(C)(C)C)C(C)(C)C)S(C)(=O)=O [Example 263]	< 100	–
CC(C)(C)[C@H](NC(=O)NC1(CS(C)(=O)=O)CCCCC1)C(=O)N1C[C@H]2[C@@H](C1C(=O)NC(CC(F)F)C(=O)NCCc1ccc(C(N)=O)cc1)C2(C)C (stereo partly shown) [Example 135]	–	Ki (Ki Rating, Table 2): 100 to 500 nM
CN(C[C@@H](NC(=O)N[C@H](C(=O)N1C[C@H]2[C@@H]([C@H]1C(=O)N[C@@H](CC(F)F)C(=O)NCCc1ccc(Br)cc1)C2(C)C)C(C)(C)C)C(C)(C)C)S(C)(=O)=O [Example 290]	< 100	–
CN(C[C@@H](NC(=O)N[C@H](C(=O)N1C[C@H]2[C@@H]([C@H]1C(=O)N[C@@H](CC(F)F)C(=O)NCCc1ccc3c(c1)OCO3)C2(C)C)C(C)(C)C)C(C)(C)C)S(C)(=O)=O [Example 272]	< 100	–
CN(C[C@@H](NC(=O)N[C@H](C(=O)N1C[C@H]2[C@@H]([C@H]1C(=O)N[C@@H](CC(F)F)C(=O)NCCc1c(F)cccc1Cl)C2(C)C)C(C)(C)C)C(C)(C)C)S(C)(=O)=O [Example 275]	< 100	–
CN(C[C@@H](NC(=O)N[C@H](C(=O)N1C[C@H]2[C@@H]([C@H]1C(=O)N[C@@H](CC(F)F)C(=O)NCCc1ccc(Cl)cc1Cl)C2(C)C)C(C)(C)C)C(C)(C)C)S(C)(=O)=O [Example 283]	< 100	–
COC(=O)c1ccc(CCNC(=O)[C@H](CC(F)F)NC(=O)[C@@H]2[C@@H]3[C@H](CN2C(=O)[C@@H](NC(=O)N[C@H](CN(C)S(C)(=O)=O)C(C)(C)C)C(C)(C)C)C3(C)C)c(Cl)c1 [Example 105]	–	Ki (Ki, Table 1): 24 nM
CCOc1ccc(CCNC(=O)[C@H](CC(F)F)NC(=O)[C@@H]2[C@@H]3[C@H](CN2C(=O)[C@@H](NC(=O)N[C@H](CN(C)S(C)(=O)=O)C(C)(C)C)C(C)(C)C)C3(C)C)cc1 [Example 274]	< 100	–
CC(O)CNC(=O)[C@H](CC(F)F)NC(=O)[C@@H]1[C@@H]2[C@H](CN1C(=O)[C@@H](NC(=O)N[C@H](CN(C)S(C)(=O)=O)C(C)(C)C)C(C)(C)C)C2(C)C (stereo partly shown) [Example 231]	> 500	–
CN(C[C@@H](NC(=O)N[C@H](C(=O)N1C[C@H]2[C@@H]([C@H]1C(=O)N[C@@H](CC(F)F)C(=O)NCCc1cccc(F)c1)C2(C)C)C(C)(C)C)C(C)(C)C)S(C)(=O)=O [Example 264]	< 100	–

SMILES	Ki (Ki, Table 3, rating) [nM]	further results
COC(=O)c1ccc(CCNC(=O)[C@H](CC(F)F)NC(=O)[C@@H]2[C@@H]3[C@H](CN2C(=O)[C@@H](NC(=O)N[C@H](CN2CCCS2(=O)=O)C(C)(C)C)C(C)(C)C)C3(C)C)c(Cl)c1 [Example 108]	–	Ki (Ki, Table 1): 30 nM
COC(=O)c1ccc(CCNC(=O)[C@H](CC(F)F)NC(=O)[C@@H]2[C@@H]3[C@H](CN2C(=O)[C@@H](NC(=O)N[C@H](C(=O)OC(C)(C)C)C(C)C)C(C)(C)C)C3(C)C)cc1 [Example 133]	–	Ki (Ki Rating, Table 2): 100 to 500 nM
CN(C[C@@H](NC(=O)N[C@H](C(=O)N1C[C@H]2[C@@H]([C@H]1C(=O)N[C@@H](CC(F)F)C(=O)NCCCc1ccccc1)C2(C)C)C(C)(C)C)C(C)(C)C)S(C)(=O)=O [Example 220]	> 500	–
CC1(C)CC(=O)N(C[C@@H](NC(=O)N[C@H](C(=O)N2C[C@H]3[C@@H]([C@H]2C(=O)N[C@@H](CC(F)F)C(=O)NCCc2c(F)cccc2F)C3(C)C)C(C)(C)C)C(C)(C)C)C(=O)C1 [Example 309]	< 100	–
Cc1ccc(CCNC(=O)[C@H](CC(F)F)NC(=O)[C@@H]2[C@@H]3[C@H](CN2C(=O)[C@@H](NC(=O)N[C@H](CN(C)S(C)(=O)=O)C(C)(C)C)C(C)(C)C)C3(C)C)cc1 [Example 261]	< 100	–
CC(C)[C@H](NC(=O)N[C@H](C(=O)N1C[C@H]2[C@@H]([C@H]1C(=O)N[C@@H](CC(F)F)C(=O)NCCc1ccc(C(=O)O)cc1)C2(C)C)C(C)(C)C)C(=O)OC(C)(C)C [Example 125]	–	Ki (Ki Rating, Table 2): 100 to 500 nM
CCN(CC)CCNC(=O)[C@H](CC(F)F)NC(=O)[C@@H]1[C@@H]2[C@H](CN1C(=O)[C@@H](NC(=O)N[C@H](CN(C)S(C)(=O)=O)C(C)(C)C)C(C)(C)C)C2(C)C [Example 234]	> 500	–
CN(C[C@@H](NC(=O)N[C@H](C(=O)N1C[C@H]2[C@@H](C1C(=O)NC(CC(F)F)C(=O)NCCc1ccc(C(=O)O)cc1)C2(C)C)C(C)(C)C)C(C)(C)C)S(C)(=O)=O (stereo partly shown) [Example 104]	–	Ki (Ki, Table 1): 24 nM
CC(C)[C@H](NC(=O)N[C@H](C(=O)N1C[C@H]2[C@@H]([C@H]1C(=O)N[C@@H](CC(F)F)C(=O)NCCc1ccc(C(N)=O)cc1)C2(C)C)C(C)(C)C)C(=O)OC(C)(C)C [Example 126]	–	Ki (Ki Rating, Table 2): 100 to 500 nM
CN(C[C@@H](NC(=O)N[C@H](C(=O)N1C[C@H]2[C@@H]([C@H]1C(=O)N[C@@H](CC(F)F)C(=O)NCCCn1cccc1)C2(C)C)C(C)(C)C)C(C)(C)C)S(C)(=O)=O [Example 238]	> 500	–
CN(C[C@@H](NC(=O)N[C@H](C(=O)N1C[C@H]2[C@@H]([C@H]1C(=O)N[C@@H](CC(F)F)C(=O)N[C@H]1C[C@@H]1c1ccccc1)C2(C)C)C(C)(C)C)C(C)(C)C)S(C)(=O)=O [Example 293]	> 500	–
COc1cc(CCNC(=O)[C@H](CC(F)F)NC(=O)[C@@H]2[C@@H]3[C@H](CN2C(=O)[C@@H](NC(=O)N[C@H](CN(C)S(C)(=O)=O)C(C)(C)C)C(C)(C)C)C3(C)C)ccc1O [Example 294]	< 100	–
CN(C[C@@H](NC(=O)N[C@H](C(=O)N1C[C@H]2[C@@H]([C@H]1C(=O)N[C@@H](CC(F)F)C(=O)NCCS(=O)(=O)C(C)(C)C)C2(C)C)C(C)(C)C)C(C)(C)C)S(C)(=O)=O [Example 253]	> 500	–
CN(C[C@@H](NC(=O)N[C@H](C(=O)N1C[C@H]2[C@@H]([C@H]1C(=O)N[C@@H](CC(F)F)C(=O)NCCc1ccncc1)C2(C)C)C(C)(C)C)C(C)(C)C)S(C)(=O)=O [Example 237]	< 100	–
COc1cc(CCNC(=O)[C@H](CC(F)F)NC(=O)[C@@H]2[C@@H]3[C@H](CN2C(=O)[C@@H](NC(=O)N[C@H](CN(C)S(C)(=O)=O)C(C)(C)C)C(C)(C)C)C3(C)C)cc(OC)c1O [Example 297]	100 to 500	–
